For one data set, the target named is T1, AcbU (Actinoplanes sp. SE50/110, UniProt Q27GS3).
T1 construct: recombinant from pRSET-B in E. coli BL21(DE3)/pLysS, Ni-NTA purified
T1 sequence (Q27GS3 1-492): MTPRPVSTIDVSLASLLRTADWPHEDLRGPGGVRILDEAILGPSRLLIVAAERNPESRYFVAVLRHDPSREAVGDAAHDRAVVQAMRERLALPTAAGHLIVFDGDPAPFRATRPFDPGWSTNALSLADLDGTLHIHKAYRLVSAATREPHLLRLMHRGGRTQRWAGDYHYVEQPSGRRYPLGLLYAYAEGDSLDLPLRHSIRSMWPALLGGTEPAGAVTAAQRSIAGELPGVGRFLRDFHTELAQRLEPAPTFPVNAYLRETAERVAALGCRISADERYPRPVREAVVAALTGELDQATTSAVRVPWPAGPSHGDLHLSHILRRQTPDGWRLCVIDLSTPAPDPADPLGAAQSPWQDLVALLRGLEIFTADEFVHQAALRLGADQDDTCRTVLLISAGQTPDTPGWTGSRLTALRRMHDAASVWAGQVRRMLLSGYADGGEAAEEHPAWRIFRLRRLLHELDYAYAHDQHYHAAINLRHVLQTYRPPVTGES
Nature of the data set: PK/LDH coupled assay, A340; LC-MS of product. The format is biochemical. The note with it: ATP […], MgCl2 […], Tris-HCl pH […] °C; substrate […].

For another data set, the target named is T2, ValC (Streptomyces hygroscopicus, UniProt Q3T6E2).
T2 construct: recombinant from pRSETB-valC in E. coli BL21(DE3)/pLysS, Ni-NTA purified
T2 sequence (Q3T6E2 1-351): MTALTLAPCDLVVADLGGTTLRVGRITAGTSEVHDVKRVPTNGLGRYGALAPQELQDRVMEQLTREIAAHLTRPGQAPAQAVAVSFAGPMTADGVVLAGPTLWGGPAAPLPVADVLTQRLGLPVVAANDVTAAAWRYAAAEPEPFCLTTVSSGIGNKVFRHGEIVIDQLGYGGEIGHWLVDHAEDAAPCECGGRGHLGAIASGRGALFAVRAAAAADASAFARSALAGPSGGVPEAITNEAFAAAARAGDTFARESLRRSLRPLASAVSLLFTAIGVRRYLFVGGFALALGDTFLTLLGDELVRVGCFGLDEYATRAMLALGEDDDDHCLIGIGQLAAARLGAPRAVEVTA
Nature of the data set: preparative phosphorylation, conversion by PK/LDH assay. The format is biochemical. The note with it: ATP 6 mM, MgCl2 5 mM, Tris-HCl pH 7.5, 30 °C, 6 h.

For the next data set, the target named is T3, AcbK (Actinoplanes sp. SE50/110, UniProt Q8RMD4).
T3 construct: recombinant from pET28b in E. coli BL21(DE3)/pLysS, Ni-NTA purified
T3 sequence (Q8RMD4 whole entry): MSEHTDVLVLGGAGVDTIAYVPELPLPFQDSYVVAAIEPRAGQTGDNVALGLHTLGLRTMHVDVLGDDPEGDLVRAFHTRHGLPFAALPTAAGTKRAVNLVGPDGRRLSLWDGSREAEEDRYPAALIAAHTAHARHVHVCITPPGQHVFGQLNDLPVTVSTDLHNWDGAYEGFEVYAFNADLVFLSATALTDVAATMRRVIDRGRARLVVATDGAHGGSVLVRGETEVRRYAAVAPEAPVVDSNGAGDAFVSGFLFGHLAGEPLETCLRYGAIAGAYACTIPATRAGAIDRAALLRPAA
The description is as above. The format is biochemical. The note with it: ATP 6 mM, MgCl2 5 mM, Tris-HCl pH 7.5, 30 °C, 6 h.

The next data set concerns the target T4, AcbS (Actinoplanes sp. SE50/110, UniProt Q27GS2).
T4 construct: recombinant from pRSET-B in E. coli BL21(DE3)/pLysS, Ni-NTA purified
T4 sequence (Q27GS2 1-709): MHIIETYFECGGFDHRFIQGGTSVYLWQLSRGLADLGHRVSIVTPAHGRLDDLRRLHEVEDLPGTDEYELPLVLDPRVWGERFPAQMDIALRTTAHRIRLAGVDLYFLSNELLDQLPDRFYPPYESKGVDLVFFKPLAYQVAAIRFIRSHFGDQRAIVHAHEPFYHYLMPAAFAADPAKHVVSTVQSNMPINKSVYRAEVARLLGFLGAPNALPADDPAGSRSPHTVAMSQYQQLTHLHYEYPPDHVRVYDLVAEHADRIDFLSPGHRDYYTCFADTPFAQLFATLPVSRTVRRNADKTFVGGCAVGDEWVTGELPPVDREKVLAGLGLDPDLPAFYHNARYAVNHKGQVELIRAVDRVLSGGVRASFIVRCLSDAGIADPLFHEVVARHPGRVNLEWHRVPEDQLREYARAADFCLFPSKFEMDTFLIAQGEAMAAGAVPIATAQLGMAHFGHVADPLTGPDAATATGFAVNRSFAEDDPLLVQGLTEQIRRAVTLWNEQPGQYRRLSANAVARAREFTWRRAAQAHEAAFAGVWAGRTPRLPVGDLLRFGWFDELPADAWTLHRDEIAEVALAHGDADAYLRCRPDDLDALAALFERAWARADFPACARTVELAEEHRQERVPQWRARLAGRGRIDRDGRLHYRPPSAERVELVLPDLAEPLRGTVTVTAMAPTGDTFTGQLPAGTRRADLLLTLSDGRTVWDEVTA
The experiment in a line: LC-QTOF/MS and MS/MS of product acarbose. The note with it: GDP-V generated in situ by AcbR from V1P and GTP; 4-aminoDGG […], MgCl2 […], pH […] °C, […] h. The format is biochemical.

Data set [1] relates to O=P(O)(O)OCC1=C[C@H](OP(=O)(O)O)[C@H](O)[C@@H](O)[C@@H]1O. The experiment in a line: purified protein. The note with it: Tris-HCl 20 mM pH 7.5, 30 °C, AcbJ 1.0 µM.
The subject of data set [2] is O=P(O)(O)O[C@H]1C=C(CO)[C@@H](O)[C@H](O)[C@H]1O. The experiment in a line: purified protein. The note with it: GTP 1 mM, MgCl2 1 mM, Tris-HCl pH 7.5, 30 °C, AcbR 1.0 µM.

For the molecule `OCC1=C[C@H](O)[C@H](O)[C@@H](O)[C@@H]1O` [V], on AcbU, the “PK/LDH coupled assay, A340; LC-MS of product” value was “AcbU can also phosphorylate valienol (V)”. In addition, at ValC, the “preparative phosphorylation, conversion by PK/LDH assay” value is “phosphorylation of synthetically prepared valienol using the cyclitol kinase ValC”. On to `C[C@H]1O[C@H](O[C@H]2[C@H](O)[C@@H](O)[C@@H](O[C@H]3[C@H](O)[C@@H](O)C(O)O[C@@H]3CO)O[C@@H]2CO)[C@H](O)[C@@H](O)[C@@H]1N[C@H]1C=C(CO)[C@@H](O)[C@H](O)[C@H]1O` (stereo partly drawn) [compound 1, acarbose], for which the “preparative phosphorylation, conversion by PK/LDH assay” value at AcbK was “prepared enzymatically from acarbose and ATP using the acarbose kinase AcbK”. On to `O=P(O)(O)OCC1=C[C@H](O)[C@H](O)[C@@H](O)[C@@H]1O` [compound 12, V7P], for which the “PK/LDH coupled assay, A340; LC-MS of product” value on AcbU is recorded as “V7P is a preferred substrate for AcbU to produce V1,7PP”. As to `Nc1nc2c(ncn2[C@@H]2O[C@H](COP(=O)(O)OP(=O)(O)O[C@H]3C=C(CO)[C@@H](O)[C@H](O)[C@H]3O)[C@@H](O)[C@H]2O)c(=O)[nH]1` [compound 16, GDP-V], the “LC-QTOF/MS and MS/MS of product acarbose” value at AcbS was “incubation of recombinant AcbS with GDP-V (generated in situ”. The term Km denotes the concentration of substrate that gives half-maximal velocity. The term kcat denotes the maximal rate divided by the concentration of active sites. AcbJ (Actinoplanes sp. SE50/110): in data set [1], the Michaelis constant (Km) amounted to 817 ± 168 µM and the turnover number (kcat) turned out to be 0.367 ± 0.067 s⁻¹. Consider AcbR (Actinoplanes sp. SE50/110), for which, in data set [2], the Michaelis-Menten constant (Km) came to 412 ± 83 µM and the kcat came to 0.233 ± 0.017 s⁻¹.

The record behind these values is article PMC9200736, “Complete biosynthetic pathway to the antidiabetic drug acarbose” (Nature Communications, 2022).
